The test system of this data set is heart failure patients. The data set can be described thus: Earlier clinical studies of flosequinan 150 mg alone in heart failure patients. The format is in vivo, human. The following applies: heart failure patients receiving 150 mg doses of flosequinan. From the text:
An increase of heart rate is generally an undesirable effect in the treatment of heart failure since additional stress is placed on the failing heart. Furthermore, patients receiving such therapy may report adverse drug events associated with the increase in heart rate such as tachycardia and palpitations. These undesirable side effects of vasodilatory drug therapy effectively limit the maximum dose of the drug which can be safely administered.
This was particularly remarkable since no increase in heart rate (HR) was apparent. This implies that the increase in cardiac output (CO) evident after coadministration of captopril and flosequinan is due to an increase in stroke volume and not due, at least in part, to an increase in heart rate (HR) as expected.

On to `Cn1cc([S+](C)[O-])c(=O)c2ccc(F)cc21` (stereo not shown) [flosequinan, 7-fluoro-1-methyl-3-methylsulphinyl-4-quinolone], for which the heart rate entry was “an increase of heart rate occurs”.

For the origin of these results see patent EP0527720B1, “THERAPEUTIC AGENTS” (The Boots Company PLC, priority 1989, dated 1990).
